Where two headings read alike, the source gives them in different places.
What was measured:
M2 muscarinic receptor = biological target: T1, M2 muscarinic receptor (Homo sapiens, UniProt P08172); experiment: Muscarinic M2 binding assay; design: purchased PerkinElmer, Inc., Wellesley, Mass; host or cells: CHO cells; details: for Ki: read-out: Ki M2
T1 sequence (P08172 1-466): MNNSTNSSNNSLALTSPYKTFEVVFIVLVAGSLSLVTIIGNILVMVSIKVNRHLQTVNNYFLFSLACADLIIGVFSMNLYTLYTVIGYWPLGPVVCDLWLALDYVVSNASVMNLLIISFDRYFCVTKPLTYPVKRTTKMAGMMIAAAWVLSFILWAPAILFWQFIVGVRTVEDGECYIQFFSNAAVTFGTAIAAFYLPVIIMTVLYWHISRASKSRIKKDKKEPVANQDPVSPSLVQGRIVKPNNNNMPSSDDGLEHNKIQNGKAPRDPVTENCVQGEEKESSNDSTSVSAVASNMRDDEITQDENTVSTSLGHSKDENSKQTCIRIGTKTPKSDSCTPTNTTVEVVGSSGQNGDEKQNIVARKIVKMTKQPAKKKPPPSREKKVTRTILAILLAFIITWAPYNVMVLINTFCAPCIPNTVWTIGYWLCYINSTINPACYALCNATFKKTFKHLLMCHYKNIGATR

adult male Wistar rats = experiment: SCORE-2000 sleep-wakefulness, locomotor activity and body temperature monitoring; format: in vivo, rat
M1 muscarinic receptor = biological target: T2, M1 muscarinic receptor (Homo sapiens, UniProt P11229); experiment: Muscarinic M1 binding assay ([3H]-scopolamine, N-methyl chloride); design: purchased PerkinElmer, Inc., Wellesley, Mass; host or cells: CHO cells; details: read-out: Ki M1
T2 sequence (P11229 1-460): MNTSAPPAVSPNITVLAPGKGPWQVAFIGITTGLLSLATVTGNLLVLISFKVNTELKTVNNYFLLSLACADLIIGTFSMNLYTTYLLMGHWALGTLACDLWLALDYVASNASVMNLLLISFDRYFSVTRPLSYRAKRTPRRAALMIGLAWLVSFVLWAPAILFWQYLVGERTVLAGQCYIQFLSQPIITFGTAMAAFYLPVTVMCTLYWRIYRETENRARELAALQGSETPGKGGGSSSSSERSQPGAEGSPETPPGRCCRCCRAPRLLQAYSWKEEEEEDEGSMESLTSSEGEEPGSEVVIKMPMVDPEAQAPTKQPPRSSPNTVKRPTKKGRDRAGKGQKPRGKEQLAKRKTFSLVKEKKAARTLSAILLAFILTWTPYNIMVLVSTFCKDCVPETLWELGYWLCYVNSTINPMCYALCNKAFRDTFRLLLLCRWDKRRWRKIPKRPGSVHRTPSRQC

M3 muscarinic receptor = M3 muscarinic receptor (Homo sapiens, UniProt P20309); experiment: Muscarinic M3 binding assay; design: purchased PerkinElmer, Inc., Wellesley, Mass; host or cells: CHO cells; details: read-out: Ki M3
M3 muscarinic receptor, sequence (P20309 whole entry): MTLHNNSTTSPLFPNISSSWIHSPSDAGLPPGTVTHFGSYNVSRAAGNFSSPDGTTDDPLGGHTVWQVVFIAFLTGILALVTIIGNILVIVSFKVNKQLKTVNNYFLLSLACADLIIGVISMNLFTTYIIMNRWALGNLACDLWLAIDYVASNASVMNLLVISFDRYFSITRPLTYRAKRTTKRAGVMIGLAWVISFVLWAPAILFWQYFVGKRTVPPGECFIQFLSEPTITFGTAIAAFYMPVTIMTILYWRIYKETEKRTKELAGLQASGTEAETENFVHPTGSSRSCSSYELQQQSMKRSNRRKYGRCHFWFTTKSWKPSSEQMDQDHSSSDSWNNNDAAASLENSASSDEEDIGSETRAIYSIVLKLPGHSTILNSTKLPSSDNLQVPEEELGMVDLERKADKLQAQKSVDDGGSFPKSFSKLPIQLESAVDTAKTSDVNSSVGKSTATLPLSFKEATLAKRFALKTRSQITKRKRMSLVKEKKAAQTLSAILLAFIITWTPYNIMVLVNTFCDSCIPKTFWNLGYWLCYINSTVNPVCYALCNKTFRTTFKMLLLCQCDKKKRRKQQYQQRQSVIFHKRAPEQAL

H1 histamine receptor = biological target: T3, H1 histamine receptor (Bos taurus, UniProt P30546); experiment: Histamine H1 competitive binding assay ([3H]pyrilamine); design: species or system bovine; details: read-out: Ki H1
T3 construct: the receptors were obtained from bovine cerebellar membrane tissue; from tissue; host or cells: bovine cerebellar membranes
T3 sequence (P30546 whole entry): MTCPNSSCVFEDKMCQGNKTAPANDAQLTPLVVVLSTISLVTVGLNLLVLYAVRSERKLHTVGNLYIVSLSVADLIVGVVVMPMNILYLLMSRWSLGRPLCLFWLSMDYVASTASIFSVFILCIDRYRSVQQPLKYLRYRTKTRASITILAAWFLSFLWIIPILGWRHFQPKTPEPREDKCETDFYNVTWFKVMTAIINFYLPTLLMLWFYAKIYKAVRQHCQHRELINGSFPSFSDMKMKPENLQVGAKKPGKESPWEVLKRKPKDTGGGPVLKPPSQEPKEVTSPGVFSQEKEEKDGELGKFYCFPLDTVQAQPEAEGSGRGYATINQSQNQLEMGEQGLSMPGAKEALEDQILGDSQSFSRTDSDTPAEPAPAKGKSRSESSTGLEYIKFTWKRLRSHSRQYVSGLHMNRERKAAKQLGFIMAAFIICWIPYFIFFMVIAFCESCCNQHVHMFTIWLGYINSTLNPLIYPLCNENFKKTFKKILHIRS

hERG = hERG (Homo sapiens, UniProt Q12809)
hERG, sequence (Q12809 whole entry): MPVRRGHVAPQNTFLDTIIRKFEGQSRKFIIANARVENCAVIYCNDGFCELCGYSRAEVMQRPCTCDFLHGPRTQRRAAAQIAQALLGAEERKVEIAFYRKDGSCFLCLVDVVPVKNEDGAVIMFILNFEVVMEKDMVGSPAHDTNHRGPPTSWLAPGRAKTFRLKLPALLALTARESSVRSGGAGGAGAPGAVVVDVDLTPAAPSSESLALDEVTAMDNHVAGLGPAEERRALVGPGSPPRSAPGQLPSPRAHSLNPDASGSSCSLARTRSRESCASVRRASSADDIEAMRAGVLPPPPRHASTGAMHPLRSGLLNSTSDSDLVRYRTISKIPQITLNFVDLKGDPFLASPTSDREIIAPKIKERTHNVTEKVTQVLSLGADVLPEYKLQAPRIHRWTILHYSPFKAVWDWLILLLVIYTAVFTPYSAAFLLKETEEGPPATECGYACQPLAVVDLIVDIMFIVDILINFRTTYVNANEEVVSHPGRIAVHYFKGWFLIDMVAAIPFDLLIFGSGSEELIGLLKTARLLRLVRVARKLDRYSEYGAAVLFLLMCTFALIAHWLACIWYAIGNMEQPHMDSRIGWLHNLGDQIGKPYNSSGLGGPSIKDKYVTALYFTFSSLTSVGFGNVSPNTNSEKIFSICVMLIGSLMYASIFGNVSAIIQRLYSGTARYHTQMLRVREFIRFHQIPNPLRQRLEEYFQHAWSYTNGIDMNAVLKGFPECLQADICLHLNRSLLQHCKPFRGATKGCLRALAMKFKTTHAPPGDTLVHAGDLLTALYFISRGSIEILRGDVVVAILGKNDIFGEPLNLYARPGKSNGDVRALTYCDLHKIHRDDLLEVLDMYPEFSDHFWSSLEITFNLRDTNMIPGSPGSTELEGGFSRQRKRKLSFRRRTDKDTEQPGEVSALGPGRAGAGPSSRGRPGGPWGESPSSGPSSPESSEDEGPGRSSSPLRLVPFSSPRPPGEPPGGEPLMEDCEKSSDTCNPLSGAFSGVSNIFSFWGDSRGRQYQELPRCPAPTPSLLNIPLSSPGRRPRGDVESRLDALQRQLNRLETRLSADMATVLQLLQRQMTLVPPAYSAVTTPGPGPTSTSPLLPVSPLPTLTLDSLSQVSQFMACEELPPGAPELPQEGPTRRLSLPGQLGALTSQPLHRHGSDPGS

Row | Structure (SMILES) | LUSB (adult male Wistar rats; dose 3 mg/kg oral at CT-18) [min] | NREM (adult male Wistar rats; dose 3 mg/kg oral at CT-18) [min] | LUSB (adult male Wistar rats; dose 10 mg/kg oral at CT-18) [min] | NREM (adult male Wistar rats; dose 10 mg/kg oral at CT-18) [min] | LUSB (adult male Wistar rats; dose 30 mg/kg oral at CT-18) [min] | NREM (adult male Wistar rats; dose 30 mg/kg oral at CT-18) [min] | also measured
1 | C[N+]1(C)C2CC(OC(=O)C(CO)c3ccccc3)CC1C1OC12.[Br-] (single isomer, unassigned; (-)) [(−)-scopolamine, MeBr, (−)-scopolamine, methyl-, bromide, reference compound] | – | – | – | – | – | – | Slope (M2 muscarinic receptor; M2 binding curve (Table 17)): −0.89
2 | COc1ccc2c(c1)COc1ccc(OC)cc1C2=C1CCN(CC(C)(C)C(=O)O)CC1 [Compound 10a] | 1.6 | -8.9 | 4 | 15.1 | 6.8 | 30.9 | LUSB (adult male Wistar rats; dose 1 mg/kg oral at CT-18): 3.1 min; NREM (adult male Wistar rats; dose 1 mg/kg oral at CT-18): -5 min
3 | COc1ccc2c(c1)C(=C1CCN(CC(C)(C)C(=O)O)CC1)c1ccc(F)cc1CO2 [Compound 46a] | 5 | 12.1 | 8.2 | 36 | – | – | Ki (M1 muscarinic receptor): > 10 µM; Ki (M3 muscarinic receptor): > 10 µM; Ki (H1 histamine receptor): 134 nM; Ki (M2 muscarinic receptor): 2.45 µM
4 | COc1ccc2c(c1)COc1ccc(F)cc1C2=C1CCN(CC(C)(C)C(=O)O)CC1 [Compound 47a] | 5.5 | 32.3 | 16.7 | 41.1 | 10 | 56.9 | Ki (M1 muscarinic receptor): > 10 µM; Ki (M3 muscarinic receptor): > 10 µM; Ki (H1 histamine receptor): 111 nM; LUSB (adult male Wistar rats; dose 1 mg/kg oral at CT-18): 2.9 min; NREM (adult male Wistar rats; dose 1 mg/kg oral at CT-18): 5.5 min; hERG at micromolar (% blocking of the hERG channel) (hERG; human, 10 µM, pH 7.4): 1% @ 10; Ki (M2 muscarinic receptor): > 10 µM
5 | CC(C)(CN1CCC(=C2c3ccc(F)cc3COc3ccc(F)cc32)CC1)C(=O)O [Compound 48a] | 11.2 | 50.8 | 10 | 58.6 | 4.4 | 39.4 | LUSB (adult male Wistar rats; dose 1 mg/kg oral at CT-18): 6.9 min; NREM (adult male Wistar rats; dose 1 mg/kg oral at CT-18): 36.7 min
6 | O=C(O)C1(CN2CCC(=C3c4ccc(F)cc4COc4ccccc43)CC2)CC1 [Compound 49b] | 10.4 | 22.5 | 13.1 | 47.3 | 15.9 | 43.2 | Ki (M1 muscarinic receptor): > 10 µM; Ki (M3 muscarinic receptor): > 10 µM; Ki (H1 histamine receptor): 61.4 nM; hERG at micromolar (% blocking of the hERG channel) (hERG; human, 10 µM, pH 7.4): 3.1% @ 10; Ki (M2 muscarinic receptor): > 10 µM
7 | CCC(CC)(CN1CCC(=C2c3ccc(F)cc3COc3ccccc32)CC1)C(=O)O [Compound 49c] | – | – | – | – | – | – | Ki (M1 muscarinic receptor): > 10 µM; Ki (M3 muscarinic receptor): > 10 µM; Ki (H1 histamine receptor): 29.9 nM; hERG at micromolar (% blocking of the hERG channel) (hERG; human, 10 µM, pH 7.4): 19.7% @ 10; Ki (M2 muscarinic receptor): > 10 µM
8 | COc1ccc2c(c1)C(=C1CCN(CC(C)(C)C(=O)O)CC1)c1ccccc1CO2 [Compound 52a] | 8.2 | 13.6 | 5.7 | 26.8 | 10.1 | 37.2 | –
9 | COc1ccc2c(c1)C(=C1CCN(CC3(C(=O)O)CC3)CC1)c1ccccc1CO2 [Compound 52b] | – | – | 2.9 | 7.5 | 7.1 | 26.8 | –
10 | CC(C)(CN1CCC(=C2c3ccccc3COc3ccc(F)cc32)CC1)C(=O)O [Compound 53a] | 17.2 | 38.6 | 14.4 | 51.5 | 11.9 | 66.3 | LUSB (adult male Wistar rats; dose 1 mg/kg oral at CT-18): 5 min; NREM (adult male Wistar rats; dose 1 mg/kg oral at CT-18): 14.6 min
11 | CC(C)(CN1CCC(=C2c3ccc(C(F)(F)F)cc3COc3ccccc32)CC1)C(=O)O [Compound 54a] | – | – | – | – | 6.1 | 28.6 | –
12 | CC(C)(CN1CCC(=C2c3ccccc3COc3ccc(O)cc32)CC1)C(=O)O [Compound 55a] | – | – | – | – | 2 | 12.8 | –
13 | O=C(O)C1(CN2CCC(=C3c4ccccc4COc4ccc(O)cc43)CC2)CC1 [Compound 55b] | – | – | 2.5 | 7.7 | – | – | –
14 | CC(C)(CN1CCC(=C2c3ccc(O)cc3COc3ccccc32)CC1)C(=O)O [Compound 56a] | – | – | – | – | 4.3 | 6.4 | –
15 | O=C(O)C1(CN2CCC(=C3c4ccc(O)cc4COc4ccccc43)CC2)CC1 [Compound 56b] | – | – | – | – | -2.9 | -9.9 | –
16 | Cc1ccc2c(c1)COc1ccccc1C2=C1CCN(CC(C)(C)C(=O)O)CC1 [Compound 57a] | – | – | – | – | -5.3 | -11 | –

Row | Structure (SMILES) | LUSB (adult male Wistar rats; dose 3 mg/kg oral at CT-18) [min] | NREM (adult male Wistar rats; dose 3 mg/kg oral at CT-18) [min] | LUSB (adult male Wistar rats; dose 10 mg/kg oral at CT-18) [min] | NREM (adult male Wistar rats; dose 10 mg/kg oral at CT-18) [min] | LUSB (adult male Wistar rats; dose 30 mg/kg oral at CT-18) [min] | NREM (adult male Wistar rats; dose 30 mg/kg oral at CT-18) [min] | also measured
17 | CC(C)(CN1CCC(=C2c3ccc(F)cc3COc3ccc(O)cc32)CC1)C(=O)O [Compound 58a] | 5.3 | 9.1 | 7.6 | -12.5 | – | – | –
18 | CC(C)(CN1CCC(=C2c3ccc(O)cc3COc3ccc(F)cc32)CC1)C(=O)O [Compound 60a] | – | – | 3.7 | -5.2 | – | – | –
19 | COc1ccc2c(c1)COc1ccccc1C2=C1CCN(CCC2(C(=O)O)CC2)CC1 [Compound 62b] | – | – | – | – | – | – | Ki (M1 muscarinic receptor): > 10 µM; Ki (M3 muscarinic receptor): > 10 µM; Ki (H1 histamine receptor): 56.5 nM; Ki (M2 muscarinic receptor): > 10 µM
20 | CC(C)(CCN1CCC(=C2c3ccc(O)cc3COc3ccccc32)CC1)C(=O)O [Compound 63a] | – | – | – | – | 4.6 | 9.6 | –
21 | O=C(O)C1(CCN2CCC(=C3c4ccc(O)cc4COc4ccccc43)CC2)CC1 [Compound 63b] | – | – | 2.1 | -4.8 | – | – | –
22 | CC(C)(CCN1CCC(=C2c3ccc(C(F)(F)F)cc3COc3ccccc32)CC1)C(=O)O [Compound 64a] | – | – | – | – | 12.3 | 33.5 | –
23 | CC(C)(CCN1CCC(=C2c3ccccc3COc3ccc(O)cc32)CC1)C(=O)O [Compound 65a] | – | – | 1.5 | 6.2 | – | – | –
24 | O=C(O)C1(CCN2CCC(=C3c4ccccc4COc4ccc(O)cc43)CC2)CC1 [Compound 65b] | – | – | 3.9 | -5.7 | – | – | –
25 | Cc1ccc2c(c1)COc1ccccc1C2=C1CCN(CCC(C)(C)C(=O)O)CC1 [Compound 66a] | – | – | – | – | 8.8 | 27.8 | –
26 | COc1ccc2c(c1)C(=C1CCN(CCC(C)(C)C(=O)O)CC1)c1ccccc1CO2 [Compound 67a] | – | – | – | – | 6.5 | -11.5 | –
27 | COc1ccc2c(c1)C(=C1CCN(CCC3(C(=O)O)CC3)CC1)c1ccccc1CO2 [Compound 67b] | – | – | 4.6 | 12.6 | 10 | 21.1 | Ki (M1 muscarinic receptor): > 10 µM; Ki (M3 muscarinic receptor): > 10 µM; Ki (H1 histamine receptor): 62.5 nM; Ki (M2 muscarinic receptor): > 10 µM
28 | CC(C)(CCN1CCC(=C2c3ccc(Cl)cc3COc3ccccc32)CC1)C(=O)O [Compound 68a] | 4.3 | 20.9 | 7.8 | 45.9 | 11.9 | 50.8 | hERG at micromolar (% blocking of the hERG channel) (hERG): 25.3% @ 10
29 | CC(C)(CN1CCC(=C2c3ccccc3COc3ccccc32)CC1)C(=O)O [Compound 69a] | 7.1 | 32.2 | 13.1 | 32.8 | 13.5 | 40 | hERG at micromolar (% blocking of the hERG channel) (hERG; human, 1 µM, pH 7.4): 6.1% @ 1
30 | O=C(O)CCN1CCC(=C2c3ccccc3COc3ccccc32)CC1 [Compound 69e] | 5.6 | 21.2 | 9.7 | 28.4 | – | – | LUSB (adult male Wistar rats; dose 20 mg/kg oral at CT-18): 12.3 min; NREM (adult male Wistar rats; dose 20 mg/kg oral at CT-18): 54.6 min; hERG at micromolar (% blocking of the hERG channel) (hERG): −1.4% @ 1
31 | CC(C)(CCCN1CCC(=C2c3ccccc3COc3ccccc32)CC1)C(=O)O [Compound 71a] | – | – | – | – | 3.6 | 8.1 | –
